Our source for the GI50 and Ki values is US11596639B2, “Substituted indole Mcl-1 inhibitors” (Vanderbilt University, priority 2016, dated 2023).

The structures appear in SMILES notation.

Assay [1] has as its system H929 human cancer cell lines. Briefly: Cellular viability / proliferation (Cell TiterGlo, 72 h). Format: cell-based. Particulars: Homo sapiens, NCI-H929, 72 h, read-out: GI50 on cellular proliferation of H929 human cancer cell lines, H929 cells, 72 h, Cell TiterGlo, 10% FBS. In a few lines:
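H929 cells plated at 1,000/well in 10% FBS medium received a 2-fold serial compound dilution (top 50 μM, DMSO <1%) 24 h later. After 72 h, viability was read by CellTiter-Glo luminescence. IC50 came from a four-parameter fit.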

The next assay has as its target Mcl-1 (Homo sapiens (Human), UniProt Q07820). Briefly: TR-FRET binding assay, FITC-Bak peptide and MBP-tagged Mcl-1. As to conditions: read-out: Ki for Inhibition of Mcl-1 by TR-FRET assay. How it is done:
Compounds are diluted in DMSO in a 16-point, semilog serial dilution scheme. […] The plate was mixed and incubated for 3 hours at room temperature. […] TR-FRET signal is plotted and IC50 and Ki values are calculated in the same manner as the fluorescence polarization anisotropy based competition assays.

Mcl-1, sequence (Q07820 172-327): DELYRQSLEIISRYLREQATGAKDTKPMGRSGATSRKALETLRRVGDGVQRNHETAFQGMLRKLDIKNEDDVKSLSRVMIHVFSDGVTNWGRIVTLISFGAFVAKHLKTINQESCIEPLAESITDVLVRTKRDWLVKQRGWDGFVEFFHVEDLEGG

With `COc1cc(N2C[C@@H](C)n3c(c(CCCOc4cc(C)c(Cl)c(C)c4)c4ccc(Cl)c(-c5c(C)ncnc5C)c43)C2=O)c2c(c1)cc(C(=O)O)n2C` [Example 535, (R)-7-(7-Chloro-10-(3-(4-chloro-3,5-dimethylphenoxy)propyl)-6-(4,6-dimethylpyrimidin-5-yl)-4-methyl-1-oxo-3,4-dihydropyrazino[1,2-a]indol-2(1H)-yl)-5-methoxy-1-methyl-1H-indole-2-carboxylic acid], the GI50 in assay [1] turned out to be 0.28 µM. Further, on Mcl-1, the Ki is under 0.0002 µM.
`Cc1cc(OCCCc2c3n(c4c(-c5c(C)nn(C)c5C)c(Cl)ccc24)[C@H](C)CN(c2cc(COCc4cscn4)cc4cc(C(=O)O)n(C)c24)C3=O)cc(C)c1Cl` [Example 688, (R)-7-(7-chloro-10-(3-(4-chloro-3,5-dimethylphenoxy)propyl)-4-methyl-1-oxo-6-(1,3,5-trimethyl-1H-pyrazol-4-yl)-3,4-dihydropyrazino[1,2-a]indol-2(1H)-yl)-1-methyl-5-((thiazol-4-ylmethoxy)methyl)-1H-indole-2-carboxylic acid]: in assay [1], the GI50 came to 0.43 µM. Besides, on Mcl-1, the Ki is 0.00022 µM.
The corresponding values for `COCCn1c(C(=O)O)cc2c(OC)ccc(N3C[C@@H](C)n4c(c(CCCOc5cc(C)c(Cl)c(C)c5)c5ccc(Cl)c(-c6c(C)nn(C)c6C)c54)C3=O)c21` [Example 587, (R)-7-(7-chloro-10-(3-(4-chloro-3,5-dimethylphenoxy)propyl)-4-methyl-1-oxo-6-(1,3,5-trimethyl-1H-pyrazol-4-yl)-3,4-dihydropyrazino[1,2-a]indol-2(1H)-yl)-4-methoxy-1-(2-methoxyethyl)-1H-indole-2-carboxylic acid] are under 0.2 µM and under 0.0002 µM.
For `COc1ccc(N2C[C@@H](C)n3c(c(CCCOc4cc(C)c(Cl)c(C)c4)c4ccc(Cl)c(-c5c(C)nc(CN(C)C)nc5C)c43)C2=O)c2c1cc(C(=O)O)n2C` [Example 483, (R)-7-(7-Chloro-10-(3-(4-chloro-3,5-dimethylphenoxy)propyl)-6-(2-((dimethylamino)methyl)-4,6-dimethylpyrimidin-5-yl)-4-methyl-1-oxo-3,4-dihydropyrazino[1,2-a]indol-2(1H)-yl)-4-methoxy-1-methyl-1H-indole-2-carboxylic acid], in that order: 0.28 µM and under 0.0002 µM.
Take `Cc1cc(OCCCc2c3n(c4c(-c5c(C)nn(C)c5C)c(Cl)ccc24)[C@H](C)CN(c2cn(C)c4ccc(-c5nn[nH]n5)nc24)C3=O)cc(C)c1Cl` [Example 687, (R)-7-chloro-10-(3-(4-chloro-3,5-dimethylphenoxy)propyl)-4-methyl-2-(1-methyl-5-(2H-tetrazol-5-yl)-1H-pyrrolo[3,2-b]pyridin-3-yl)-6-(1,3,5-trimethyl-1H-pyrazol-4-yl)-3,4-dihydropyrazino[1,2-a]indol-1(2H)-one]: the GI50 in assay [1] is 0.33 µM. The Ki on Mcl-1 was under 0.0002 µM.
In the case of `Cc1cc(OCCCc2c3n(c4c(-c5c(C)nn(C)c5C)c(Cl)ccc24)[C@H](C)CN(c2cc(OC4CCN(C)CC4)cc4cc(C(=O)O)n(C)c24)C3=O)cc(C)c1Cl` [Example 519, (R)-7-(7-chloro-10-(3-(4-chloro-3,5-dimethylphenoxy)propyl)-4-methyl-1-oxo-6-(1,3,5-trimethyl-1H-pyrazol-4-yl)-3,4-dihydropyrazino[1,2-a]indol-2(1H)-yl)-1-methyl-5-((1-methylpiperidin-4-yl)oxy)-1H-indole-2-carboxylic acid], the GI50 in assay [1] was determined as 0.99 µM. Besides, on Mcl-1, the Ki came out at 0.00046 µM.
In the case of `COCCn1cc(N2C[C@@H](C)n3c(c(CCCOc4cc(C)c(Cl)c(C)c4)c4ccc(Cl)c(-c5c(C)nn(C)c5C)c43)C2=O)c2cc(-c3ncn(C)n3)ccc21` [Example 524, (R)-7-Chloro-10-(3-(4-chloro-3,5-dimethylphenoxy)propyl)-2-(1-(2-methoxyethyl)-5-(1-methyl-1H-1,2,4-triazol-3-yl)-1H-indol-3-yl)-4-methyl-6-(1,3,5-trimethyl-1H-pyrazol-4-yl)-3,4-dihydropyrazino[1,2-a]indol-1(2H)-one], the GI50 in assay [1] came out at 0.22 µM. On Mcl-1, the Ki came to 0.00028 µM.
In the case of `COCCn1cc(N2C[C@@H](C)n3c(c(CCCOc4cc(C)c(Cl)c(C)c4)c4ccc(Cl)c(-c5c(C)nn(C)c5C)c43)C2=O)c2cc(-c3ncn(CCN4CCN(C)CC4)n3)ccc21` [Example 602, (R)-7-Chloro-10-(3-(4-chloro-3,5-dimethylphenoxy)propyl)-2-(1-(2-methoxyethyl)-5-(1-(2-(4-methylpiperazin-1-yl)ethyl)-1H-1,2,4-triazol-3-yl)-1H-indol-3-yl)-4-methyl-6-(1,3,5-trimethyl-1H-pyrazol-4-yl)-3,4-dihydropyrazino[1,2-a]indol-1(2H)-one], the GI50 in assay [1] turned out to be 0.43 µM. Also, on Mcl-1, the Ki was 0.0059 µM.
Consider `Cc1cc(OCCCc2c3n(c4c(-c5c(C)nn(C)c5C)c(Cl)ccc24)[C@H](C)CN(c2c(C)ccc4cc(C(=O)O)n(C)c24)C3=O)cc(C)c1Cl` [Example 726, (R)-7-(7-Chloro-10-(3-(4-chloro-3,5-dimethylphenoxy)propyl)-4-methyl-1-oxo-6-(1,3,5-trimethyl-1H-pyrazol-4-yl)-3,4-dihydropyrazino[1,2-a]indol-2(1H)-yl)-1,6-dimethyl-1H-indole-2-carboxylic acid], for which the GI50 in assay [1] came out at 0.26 µM. Moreover, on Mcl-1, the inhibitory constant (Ki) is under 0.0002 µM.
The corresponding values for `COCCOCCn1c(C(=O)O)cc2cc(C)cc(N3C[C@@H](C)n4c(c(CCCOc5cc(C)c(Cl)c(C)c5)c5ccc(Cl)c(-c6c(C)ncnc6C)c54)C3=O)c21` [Example 635, (R)-7-(7-chloro-10-(3-(4-chloro-3,5-dimethylphenoxy)propyl)-6-(4,6-dimethylpyrimidin-5-yl)-4-methyl-1-oxo-3,4-dihydropyrazino[1,2-a]indol-2(1H)-yl)-1-(2-(2-methoxyethoxy)ethyl)-5-methyl-1H-indole-2-carboxylic acid] are under 0.2 µM and under 0.0002 µM.
For `Cc1cc(OCCCc2c3n(c4c(-c5c(C)nc(CN6CCN(C)C(=O)C6)nc5C)c(Cl)ccc24)[C@H](C)CN(c2cn(C)c4ccc(-c5ncn(C)n5)cc24)C3=O)cc(C)c1Cl` [Example 663, (R)-7-chloro-10-(3-(4-chloro-3,5-dimethylphenoxy)propyl)-6-(4,6-dimethyl-2-((4-methyl-3-oxopiperazin-1-yl)methyl)pyrimidin-5-yl)-4-methyl-2-(1-methyl-5-(1-methyl-1H-1,2,4-triazol-3-yl)-1H-indol-3-yl)-3,4-dihydropyrazino[1,2-a]indol-1(2H)-one], in that order: under 0.2 µM and 0.00052 µM.
For `Cc1cc(OCCCc2c3n(c4c(-c5c(C)nn(C)c5C)c(Cl)ccc24)[C@H](C)CN(c2cc(CN4CCOCC4)cc4c(C(=O)O)cn(C)c24)C3=O)cc(C)c1Cl` [Example 549, (R)-7-(7-chloro-10-(3-(4-chloro-3,5-dimethylphenoxy)propyl)-4-methyl-1-oxo-6-(1,3,5-trimethyl-1H-pyrazol-4-yl)-3,4-dihydropyrazino[1,2-a]indol-2(1H)-yl)-1-methyl-5-(morpholinomethyl)-1H-indole-3-carboxylic acid], in that order: 0.34 µM and 0.00034 µM.
As to `Cc1cccc(Cn2cc(C(=O)O)c3cccc(N4C[C@@H](C)n5c(c(CCCOc6cc(C)c(Cl)c(C)c6)c6ccc(Cl)c(-c7c(C)nn(C)c7C)c65)C4=O)c32)n1` (single isomer, unassigned) [Example 491], the GI50 in assay [1] amounted to 0.28 µM. For the same compound, at Mcl-1, the Ki was under 0.0002 µM.
The corresponding values for `Cc1cccc(Cn2cnc(-c3ccc4c(c3)c(N3C[C@@H](C)n5c(c(CCCOc6cc(C)c(Cl)c(C)c6)c6ccc(Cl)c(-c7c(C)nn(C)c7C)c65)C3=O)cn4CC(=O)N(C)C)n2)n1` [Example 639, (R)-2-(3-(7-Chloro-10-(3-(4-chloro-3,5-dimethylphenoxy)propyl)-4-methyl-1-oxo-6-(1,3,5-trimethyl-1H-pyrazol-4-yl)-3,4-dihydropyrazino[1,2-a]indol-2(1H)-yl)-5-(1-((6-methylpyridin-2-yl)methyl)-1H-1,2,4-triazol-3-yl)-1H-indol-1-yl)-N,N-dimethylacetamide] are 0.9 µM and 0.0042 µM.
For `Cc1cc(OCCCc2c3n(c4c(-c5c(C)nn(C)c5C)c(Cl)ccc24)[C@H](C)CN(c2cn(CC(=O)N4CCOCC4)c4ccc(-c5ncn(C)n5)cc24)C3=O)cc(C)c1Cl` [Example 525, (R)-7-Chloro-10-(3-(4-chloro-3,5-dimethylphenoxy)propyl)-4-methyl-2-(5-(1-methyl-1H-1,2,4-triazol-3-yl)-1-(2-morpholino-2-oxoethyl)-1H-indol-3-yl)-6-(1,3,5-trimethyl-1H-pyrazol-4-yl)-3,4-dihydropyrazino[1,2-a]indol-1(2H)-one], in that order: 0.33 µM and 0.00041 µM.
The corresponding values for `Cc1cc(OCCCc2c3n(c4c(-c5c(C)ncnc5C)c(Cl)ccc24)[C@H](C)CN(c2cn(C)c4ccc(-c5ncn(C)n5)cc24)C3=O)cc(C)c1Cl` [Example 574, (R)-7-Chloro-10-(3-(4-chloro-3,5-dimethylphenoxy)propyl)-6-(4,6-dimethylpyrimidin-5-yl)-4-methyl-2-(1-methyl-5-(1-methyl-1H-1,2,4-triazol-3-yl)-1H-indol-3-yl)-3,4-dihydropyrazino[1,2-a]indol-1(2H)-one] are 0.27 µM and 0.0024 µM.
